Ends that are not written are not given here.

Data set [1] in a line: Cytosolic stability of optimal epitopes in iMP extracts. Conditions: human, iMP cytosolic extract, pH 7.4. Format: in vitro ADME.
The nature of data set [2]: Cytosolic stability of optimal epitopes in iDC extracts. Format: in vitro ADME. Conditions: human, iDC cytosolic extract, pH 7.4.
In another data set the test system is monocyte-derived DCs. In words: Proteolytic activities in live DCs upon TLR ligand maturation. Format: cell-based, human.
The mark [3] stands for this setting: 24h post stimulation, maturing over immature cells, n=2 donors.

Usually half-life stands for the time needed for the level to fall by half in the phase considered. A higher half-life goes with slow loss. For ISPRTLNAW [ISW9], the half-life in data set [1] came to 9.4 min; in data set [2], 7 min.
With `CCOCc1nc2c([nH]1)c(N)nc1ccccc12` [CL097], in the data set on monocyte-derived DCs (5h, 24h, 48h post stimulation), the “change of aminopeptidases hydrolytic activities in maturing DCs” value was “unchanged” and the “change of chymotryptic activities in maturing DCs” value is on record as “not affected”. Also, in the data set on monocyte-derived DCs (setting [3]), the “decrease of proteasomal caspase-like activity in maturing DCs” value amounted to 30% and the “decrease of proteasomal tryptic activity in maturing DCs” value is 30%.
In the case of `CC[C@H](C)[C@H](NC(=O)[C@@H](NC(=O)[C@H](CCC(=O)O)NC(=O)[C@@H]1CCCN1C(=O)[C@H](CO)NC(=O)[C@H](Cc1ccccc1)NC(=O)[C@H](C)NC(=O)[C@@H](N)CCCCN)C(C)C)C(=O)N1CCC[C@H]1C(=O)N[C@@H](CCSC)C(=O)N[C@@H](Cc1ccccc1)C(=O)O` [KF11], the half-life in data set [1] was 20.4 min; in data set [2], 22.1 min.

The values are drawn from PMC4201977 (Journal of immunology (Baltimore, Md. : 1950), 2014).
